Reference: article PMC10969742, “A Phase I Study of the Oral Dual-Acting Pan-PI3K/mTOR Inhibitor Bimiralisib in Patients with Advanced Solid Tumors” (Cancers, 2024)
Read-outs that look alike come from different tables or passages of the source.

Experiments:
[1] = Plasma pharmacokinetics of bimiralisib, non-compartmental analysis (LC-MS); format: in vivo, human; settings: for AUC(0-t) / Cmax / Tmax: human, plasma, oral; for Cmax: read-out: Cmax Mean (%CV)
Protocol: Blood samples were collected to enable full PK profiling of bimiralisib. The PK samples were taken pre-dose and at 0.5, 1, 2, 4, 6, 8, and 24 h post-dosing in the three schedules, with additional timepoints depending on the schedule (48 h in the continuous schedule, 12, 16, and 48 h in intermittent schedule A and 12, 16, and 72 h in intermittent schedule B). PK sampling was repeated on cycle 1 Day 8 (continuous schedule: pre-dose and 1 h post-dose; intermittent schedules A and B: pre-dose and 0.5, 1, 2, 4, 6, 8, and 24 h post-dose), on cycle 1 Day 15 (continuous schedule: pre-dose and 0.5, 1, 2, 4, 6 and 8 h post-dose; intermittent schedules A and B: pre-dose and 4 h post-dose), and on cycle 2 Day 1 (continuous dosing: pre-dose and 1 h post-dose). Samples were sent to a central laboratory for analysis using liquid-chromatography mass spectrometry. The pharmacokinetics of bimiralisib were determined by non-compartmental analysis. Area under the concentration vs. time curve (AUC) was calculated using the linear up log down trapezoidal method. Accumulation was calculated as the ratio of cycle 1 on Day 15 AUC0–8h versus cycle 1 on Day -3 AUC0–8h.

[2] = system: head and neck squamous cancer with loss of function NOTCH1T1997M mutations; settings: eight patients, intermittent bimiralisib regimen; cited from earlier work

Nc1cc(C(F)(F)F)c(-c2nc(N3CCOCC3)nc(N3CCOCC3)n2)cn1 [bimiralisib, 5-(4,6-Dimorpholino-1,3,5-triazin-2-yl)-4-(trifluoromethyl)pyridin-2-amine]
AUC(0-t) ([1]; 120 mg, Intermittent Dose Schedule A, 120 mg, Day -3, 4 patients, read-out: AUC0–24 Geometric Mean (%CV)): 5590 ng·h/mL | Cmax ([1]; 120 mg, Intermittent Dose Schedule A, 120 mg, Day -3, 4 patients): 549 ng/mL | Tmax ([1]; 120 mg, Intermittent Dose Schedule A, 120 mg, Day -3, 4 patients, read-out: Tmax Median, (Range)): 3 h | AUC(0-t) ([1]; 120 mg, Intermittent Dose Schedule B, 120 mg, Day 1, 3 patients, read-out: AUC0–8 Geometric Mean (%CV)): 1530 ng·h/mL | AUC(0-t) ([1]; 120 mg, Intermittent Dose Schedule B, 120 mg, Day 1, 3 patients, read-out: AUC0–24 Geometric Mean (%CV)): 3340 ng·h/mL | Cmax ([1]; 120 mg, Intermittent Dose Schedule B, 120 mg, Day 1, 3 patients): 471 ng/mL | Tmax ([1]; 120 mg, Intermittent Dose Schedule B, 120 mg, Day 1, 3 patients, read-out: Tmax Median, (Range)): 1 h | AUC(0-t) ([1]; 120 mg, Intermittent Dose Schedule B, 120 mg, Day 8, 3 patients, read-out: AUC0–8 Geometric Mean (%CV)): 2210 ng·h/mL | AUC(0-t) ([1]; 120 mg, Intermittent Dose Schedule B, 120 mg, Day 8, 3 patients, read-out: AUC0–24 Geometric Mean (%CV)): 5850 ng·h/mL | Cmax ([1]; 120 mg, Intermittent Dose Schedule B, 120 mg, Day 8, 3 patients): 594 ng/mL | Tmax ([1]; 120 mg, Intermittent Dose Schedule B, 120 mg, Day 8, 3 patients, read-out: Tmax Median, (Range)): 1 h | AUC(0-t) ([1]; 140 mg, Intermittent Dose Schedule A, 140 mg, Day 8, 6 patients, read-out: AUC0–8 Geometric Mean (%CV)): 3220 ng·h/mL | Cmax ([1]; 140 mg, Intermittent Dose Schedule A, 140 mg, Day 8, 6 patients): 923 ng/mL | Tmax ([1]; 140 mg, Intermittent Dose Schedule A, 140 mg, Day 8, 6 patients, read-out: Tmax Median, (Range)): 1 h | AUC(0-t) ([1]; 140 mg, Intermittent Dose Schedule A, 140 mg, Day 8, n = 3, read-out: AUC0–24 Geometric Mean (%CV)): 7590 ng·h/mL | AUC(0-t) ([1]; 140 mg, Intermittent Dose Schedule A, 140 mg, Day -3, 6 patients, read-out: AUC0–8 Geometric Mean (%CV)): 2580 ng·h/mL | AUC(0-t) ([1]; 140 mg, Intermittent Dose Schedule A, 140 mg, Day -3, 6 patients, read-out: AUC0–24 Geometric Mean (%CV)): 5810 ng·h/mL | Cmax ([1]; 140 mg, Intermittent Dose Schedule A, 140 mg, Day -3, 6 patients): 709 ng/mL | Tmax ([1]; 140 mg, Intermittent Dose Schedule A, 140 mg, Day -3, 6 patients, read-out: Tmax Median, (Range)): 1 h | AUC(0-t) ([1]; 140 mg, Intermittent Dose Schedule B, 140 mg, Day 1, 3 patients, read-out: AUC0–8 Geometric Mean (%CV)): 4150 ng·h/mL | AUC(0-t) ([1]; 140 mg, Intermittent Dose Schedule B, 140 mg, Day 1, 3 patients, read-out: AUC0–24 Geometric Mean (%CV)): 9740 ng·h/mL | Cmax ([1]; 140 mg, Intermittent Dose Schedule B, 140 mg, Day 1, 3 patients): 1010 ng/mL | Tmax ([1]; 140 mg, Intermittent Dose Schedule B, 140 mg, Day 1, 3 patients, read-out: Tmax Median, (Range)): 1 h | AUC(0-t) ([1]; 140 mg, Intermittent Dose Schedule B, 140 mg, Day 8, 3 patients, read-out: AUC0–8 Geometric Mean (%CV)): 5160 ng·h/mL | Cmax ([1]; 140 mg, Intermittent Dose Schedule B, 140 mg, Day 8, 3 patients): 1560 ng/mL | Tmax ([1]; 140 mg, Intermittent Dose Schedule B, 140 mg, Day 8, 3 patients, read-out: Tmax Median, (Range)): 1 h | AUC(0-t) ([1]; 140 mg, Intermittent Dose Schedule B, 140 mg, Day 8, n = 2, read-out: AUC0–24 Geometric Mean (%CV)): 12600 ng·h/mL | AUC(0-t) ([1]; 160 mg, Intermittent Dose Schedule A, 160 mg, Day 8, 3 patients, read-out: AUC0–8 Geometric Mean (%CV)): 4080 ng·h/mL | AUC(0-t) ([1]; 160 mg, Intermittent Dose Schedule A, 160 mg, Day 8, 3 patients, read-out: AUC0–24 Geometric Mean (%CV)): 11100 ng·h/mL | Cmax ([1]; 160 mg, Intermittent Dose Schedule A, 160 mg, Day 8, 3 patients): 857 ng/mL | Tmax ([1]; 160 mg, Intermittent Dose Schedule A, 160 mg, Day 8, 3 patients, read-out: Tmax Median, (Range)): 2 h | AUC(0-t) ([1]; 160 mg, Intermittent Dose Schedule A, 160 mg, Day -3, 3 patients, read-out: AUC0–8 Geometric Mean (%CV)): 2480 ng·h/mL | AUC(0-t) ([1]; 160 mg, Intermittent Dose Schedule A, 160 mg, Day -3, 3 patients, read-out: AUC0–24 Geometric Mean (%CV)): 5830 ng·h/mL | Cmax ([1]; 160 mg, Intermittent Dose Schedule A, 160 mg, Day -3, 3 patients): 539 ng/mL | Tmax ([1]; 160 mg, Intermittent Dose Schedule A, 160 mg, Day -3, 3 patients, read-out: Tmax Median, (Range)): 1 h | AUC(0-t) ([1]; 160 mg, Intermittent Dose Schedule B, 160 mg, Day 1, 3 patients, read-out: AUC0–8 Geometric Mean (%CV)): 1050 ng·h/mL | AUC(0-t) ([1]; 160 mg, Intermittent Dose Schedule B, 160 mg, Day 1, 3 patients, read-out: AUC0–24 Geometric Mean (%CV)): 3700 ng·h/mL | Cmax ([1]; 160 mg, Intermittent Dose Schedule B, 160 mg, Day 1, 3 patients): 317 ng/mL | Tmax ([1]; 160 mg, Intermittent Dose Schedule B, 160 mg, Day 1, 3 patients, read-out: Tmax Median, (Range)): 12 h | AUC(0-t) ([1]; 160 mg, Intermittent Dose Schedule B, 160 mg, Day 8, 3 patients, read-out: AUC0–8 Geometric Mean (%CV)): 1770 ng·h/mL | Cmax ([1]; 160 mg, Intermittent Dose Schedule B, 160 mg, Day 8, 3 patients): 325 ng/mL | Tmax ([1]; 160 mg, Intermittent Dose Schedule B, 160 mg, Day 8, 3 patients, read-out: Tmax Median, (Range)): 8 h | AUC(0-t) ([1]; 200 mg, Intermittent Dose Schedule A, 200 mg, Day 8, 4 patients, read-out: AUC0–8 Geometric Mean (%CV)): 4460 ng·h/mL | Tmax ([1]; 200 mg, Intermittent Dose Schedule A, 200 mg, Day 8, 4 patients, read-out: Tmax Median, (Range)): 2 h | AUC(0-t) ([1]; 200 mg, Intermittent Dose Schedule A, 200 mg, Day 8, n = 2, read-out: AUC0–24 Geometric Mean (%CV)): 15900 ng·h/mL | AUC(0-t) ([1]; 200 mg, Intermittent Dose Schedule A, 200 mg, Day -3, 4 patients, read-out: AUC0–8 Geometric Mean (%CV)): 3480 ng·h/mL | AUC(0-t) ([1]; 200 mg, Intermittent Dose Schedule A, 200 mg, Day -3, 4 patients, read-out: AUC0–24 Geometric Mean (%CV)): 7050 ng·h/mL | Cmax ([1]; 200 mg, Intermittent Dose Schedule A, 200 mg, Day -3, 4 patients): 1030 ng/mL | Tmax ([1]; 200 mg, Intermittent Dose Schedule A, 200 mg, Day -3, 4 patients, read-out: Tmax Median, (Range)): 2 h | AUC(0-t) ([1]; 200 mg, Intermittent Dose Schedule B, 200 mg, Day 1, 4 patients, read-out: AUC0–8 Geometric Mean (%CV)): 3190 ng·h/mL | AUC(0-t) ([1]; 200 mg, Intermittent Dose Schedule B, 200 mg, Day 1, 4 patients, read-out: AUC0–24 Geometric Mean (%CV)): 8010 ng·h/mL | Cmax ([1]; 200 mg, Intermittent Dose Schedule B, 200 mg, Day 1, 4 patients): 734 ng/mL | Tmax ([1]; 200 mg, Intermittent Dose Schedule B, 200 mg, Day 1, 4 patients, read-out: Tmax Median, (Range)): 1.5 h | AUC(0-t) ([1]; 200 mg, Intermittent Dose Schedule B, 200 mg, Day 8, 4 patients, read-out: AUC0–8 Geometric Mean (%CV)): 5800 ng·h/mL | Cmax ([1]; 200 mg, Intermittent Dose Schedule B, 200 mg, Day 8, 4 patients): 1200 ng/mL | Tmax ([1]; 200 mg, Intermittent Dose Schedule B, 200 mg, Day 8, 4 patients, read-out: Tmax Median, (Range)): 1.5 h | AUC(0-t) ([1]; 200 mg, Intermittent Dose Schedule B, 200 mg, Day 8, n = 3, read-out: AUC0–24 Geometric Mean (%CV)): 14700 ng·h/mL | Tmax ([1]; after the first dose, all three dosing schedules, range, 0.5–48 h, read-out: Median time to reach the peak plasma concentration (Tmax)): 2 h | Dose-exposure relationship ([1]; intermittent doses higher than 140 mg): less than linear dose-exposure relationship | Confirmed PR, number of patients [2]: one | SDs, number of patients [2]: three
